Results published in US7348328B2, “MCH antagonists for the treatment of obesity” (Schering Corporation, priority 2001, dated 2008).

These compounds were tested against T1, MCH receptor (Homo sapiens, UniProt Q99705) (assay: MCH Receptor Binding Assay). Details: Binding Activity; membranes from CHO cells expressing the MCH receptor, [125I]-MCH; read-out: MCH Ki.
T1 construct: expressed in transfected cells; host or cells: CHO cells (membranes)
T1 sequence (Q99705 whole entry): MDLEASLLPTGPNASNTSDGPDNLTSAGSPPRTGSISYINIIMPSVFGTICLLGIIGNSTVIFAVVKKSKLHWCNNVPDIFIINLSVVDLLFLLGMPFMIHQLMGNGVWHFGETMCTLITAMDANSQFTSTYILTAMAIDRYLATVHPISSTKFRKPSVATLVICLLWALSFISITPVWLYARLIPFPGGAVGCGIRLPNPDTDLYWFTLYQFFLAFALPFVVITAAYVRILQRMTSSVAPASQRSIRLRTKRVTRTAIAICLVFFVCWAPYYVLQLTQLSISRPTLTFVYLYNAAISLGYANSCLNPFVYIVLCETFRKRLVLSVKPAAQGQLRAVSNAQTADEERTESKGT
Description: MCH Receptor Binding Assay:
Membranes from CHO cells expressing the MCH receptor were prepared by lysing cells with 5 mM HEPES for 15 min at 4C. Cell lysates were centrifuged ([…], 15 min) and the pellet was resuspended in 5 mM HEPES. For each 96-well plate (Microlite, Dynex Technologies), 1 mg of cell membranes were incubated with 10 mg of wheat germ agglutinin SPA beads (Amersham) for 5 min at 4 C. in a volume of 10 ml of binding buffer (25 mM HEPES, 10 mM MGCl2, 10 mM NaCl, 5 mM MnCl2, 0.1% BSA). The membrane/bead mixture was centrifuged (1500×g, 3.5 min), the supernatant was aspirated, and the pellet was resuspended in 10 ml binding buffer. The centrifugation, aspiration and resuspension were then repeated. […] Nonspecific binding was determined by including 1 μM MCH in the binding reaction. The binding reaction was incubated at room temperature for 2 h. Plates were then analyzed in a TOPCOUNT microplate scintillation counter (Packard). Data was analyzed and Ki values were determined using GraphPad Prim.
Compound `N#Cc1cccc([C@]23CC[C@@H](N(CCN4CCCC4)C(=O)Nc4ccc(F)c(Cl)c4)[C@H]2C3)c1` [Example 189] has a Ki of 18 nM. For `N#Cc1cccc([C@]23CC[C@@H](N(CCCCN4CCOCC4)C(=O)Nc4ccc(F)c(C(F)(F)F)c4)[C@H]2C3)c1` [Example 225], the Ki was 2.6 nM.

Same assay, conditions: Table 1b, preferred compounds; read-out: MCH R1 Ki
For `CCNS(=O)(=O)NC1CCN(CCCN(C(=O)Nc2ccc(F)c(F)c2)[C@@H]2CC[C@@]3(c4cccc(C#N)c4)CC3C2)C1` (some centres unmarked), the Ki was 7.1 nM. `O=C(Nc1ccc(F)c(F)c1)N(CCCN1CCCC1)[C@@H]1CC[C@@]2(c3cccc(-c4ncc[nH]4)c3)CC2C1` (some centres unmarked) gave a Ki of 5.4 nM. For `CN1CCN(CCCCN(C(=O)Nc2ccc(F)c(Cl)c2)[C@@H]2CC[C@]3(c4cccc(C#N)c4)C[C@H]23)CC1`, the Ki was 2.2 nM. With `N#Cc1cccc([C@]23CC[C@H](N(CC4CCN(CC5CC5)CC4)C(=O)Nc4ccc(F)c(Cl)c4)CC2C3)c1` (some centres unmarked) the Ki was 10 nM. For `N#Cc1cccc([C@@]23CC[C@@H](N(CCCN4CC[C@@H](F)C4)C(=O)Nc4ccc(F)c(F)c4)CC2C3)c1` (some centres unmarked), the Ki was 5 nM. `O=C(Nc1ccc(F)c(Cl)c1)N(CCN1CCCC1)C1CC=C(c2cccc(Cl)c2)CC1` (centres unmarked) showed a Ki of 14 nM. Compound `CC1(C)[C@H]2[C@@H](CO)N(CCCCN(C(=O)Nc3ccc(F)c(C(F)(F)F)c3)[C@@H]3CC[C@@]4(c5ccc(C#N)cc5)C[C@H]34)C[C@H]21` has a Ki of 8 nM. `CSc1cccc([C@@]23CC[C@@H](N(CCCN4CCCC4)C(=O)Nc4ccc(F)c(F)c4)CC2C3)c1` (some centres unmarked) showed a Ki of 22 nM. `CN1CCN(CCCN(C(=O)Nc2ccc(F)c(Cl)c2)[C@@H]2CC[C@]3(c4cccc(C#N)c4)C[C@@H]3C2)CC1` gave a Ki of 4.2 nM.
